The test system of experiment [1] is human embryonic stem cell line H1. Briefly: Immunofluorescence analysis of cultures at stage 3 day 4 (Example 1). The format is cell-based. How it is done: (§1) Cells of the human embryonic stem cell line H1 were cultured on MATRIGEL-coated plates (1:30 dilution), and differentiated into pancreatic endocrine precursor cells using the following protocol: • a.
(§2) Cultures were sampled in duplicate on stage 3 day 4, and analyzed for expression of pancreatic markers using real-time PCR. Cultures also were fixed in parallel for immunofluorescence analysis.

Experiment [2] has as its system human embryonic stem cells line H1. As to conditions: stage 4 day 3. How it is done:
(§3) Briefly, cells of the human embryonic stem cells line H1 were cultured on […]™ coated dishes (1:30 dilution) with RPMI medium+2% BSA+100 ng/ml activin A+20 ng/ml WNT-3a+8 ng/ml of bFGF for one day followed by treatment with RPMI media+2% BSA+100 ng/ml activin A+8 ng/ml of bFGF for an additional two days (Stage 1), then • a. DMEM/F12+2% BSA+50 ng/ml FGF7 for three days (Stage 2), then • b. DMEM-High glucose+1% B27+50 ng/ml FGF7+0.25 μM Cyclopamine-KAAD+2 μM Retinoic acid (RA)+100 ng/ml of Noggin+20 ng/ml Activin A for four days (Stage 3), then • c. DMEM-High glucose+1% B27+100 ng/ml Noggin+1 μM ALK5 inhibitor II for three days (Stage 4), or • d. DMEM-High glucose+1% B27 only for three days (Stage 4).
Pancreatic endocrine precursor cells express NGN3.

For experiment [3] the test system is unchanged. As to conditions: stage 4; immunocytochemistry (FIG. 6). How it is done:
as §3

The subject of experiment [4] is human embryonic stem cell line H1. Put plainly: Real-time PCR of pancreatic markers at stage 3 day 4 (Example 1). The format is cell-based. How it is done:
Cultures were sampled in duplicate on stage 3 day 4, and analyzed for the expression of pancreatic markers using real-time PCR.
as §1, §2
A general note: Quantitative PCR measures a nucleic acid by following its amplification.

The mark [5] stands for this setting: 1 μM ALK5 inhibitor II + 100 ng/ml Noggin vs basal medium (FIG. 5).
Where [6] appears, read: 1 μM ALK5 inhibitor II + 100 ng/ml Noggin vs basal medium (FIG. 5 panel b).
[7] abbreviates: replacement of activin A in treatment 2, four days, stage 3 day 4 (FIG. 4).

`Cc1cccc(-c2[nH]ncc2-c2ccc3ncccc3n2)n1` [Alk5 inhibitor II, ALK5 inhibitor II]: the “number of NGN3 expressing cells” value in experiment [1] (1 μM ALK5 inhibitor II added to treatment 1 (Table 1, FIG. 2 panel f)) was “significantly increased”. Also, in experiment [2] (setting [5]), the NGN3 expression result is recorded as “significant increase”, the “expression of NEUROD” value is given as “up regulation”, the “expression of NKX2.2” value is on record as “up regulation” and the “expression of PAX4” value is “up regulation”. Further, in experiment [2] (setting [5]), the “expression of PAX6” value is “up regulation” and the “expression of PTF1 alpha” value is “increase”. Moreover, in experiment [2] (setting [6]), the “expression of NKX6.1” value is “did not appear to affect” and the “expression of PDX1” value is listed as “did not appear to affect”. Moreover, in experiment [3], the “number of cells positive for NGN3 protein” value is reported as “increase”. Moreover, in experiment [4] (stage 3 day 4, 1 μM ALK5 inhibitor II added to treatment 1), the PDX1 expression result was “No significant impact”. Also, the “level of expression of NKX6.1” value in experiment [4] (stage 3 day 4, 1 μM ALK5 inhibitor II added to treatment 1, compared with treatment 1) is listed as “decrease”.

In the case of GDF-8, in experiment [4] (setting [7]), the PDX1 expression entry was “No significant impact”, the “expression of NGN3” value is “down-regulation” and the “expression of NKX6.1” value is on record as “increase”.

B1: GDF-11 (protein, UniProt O95390 299-407, looked up)
Growth/differentiation factor …: NLGLDCDEHSSESRCCRYPLTVDFEAFGWDWIIAPKRYKANYCSGQCEYMFMQKYPHTHLVQQANPRGSAGPCCTPTKMSPINMLYFNDKQQIIYGKIPGMVVDRCGCS
notes: TGFβ receptor agonist
B1: in experiment [4] (setting [7]), the PDX1 expression result was “No significant impact”, the “expression of NGN3” value is “down-regulation” and the “expression of NKX6.1” value is “increase”.

B2: activin B (protein, UniProt P09529 293-407, looked up)
Inhibin beta B chain: GLECDGRTNLCCRQQFFIDFRLIGWNDWIIAPTGYYGNYCEGSCPAYLAGVPGSASSFHTAVVNQYRMRGLNPGTVNSCCIPTKLSTMSMLYFDDEYNIVKRDVPNMIVEECGCA
modifications: Inhibin beta B chain
notes: TGFβ receptor agonist
In the case of B2, in experiment [4] (setting [7]), the PDX1 expression entry is “No significant impact”, the “expression of NGN3” value was “down-regulation” and the “expression of NKX6.1” value is reported as “increase”.

B3: TGFβ2 (protein, UniProt P61812 303-414, looked up)
Transforming growth factor …: ALDAAYCFRNVQDNCCLRPLYIDFKRDLGWKWIHEPKGYNANFCAGACPYLWSSDTQHSRVLSLYNTINPEASASPCCVSQDLEPLTILYYIGKTPKIEQLSNMIVKSCKCS
notes: TGFβ receptor agonist
B3: in experiment [4] (setting [7]), the PDX1 expression entry was “No significant impact”, the “expression of NGN3” value was “down-regulation” and the “expression of NKX6.1” value is “increase”.

B4: activin A (protein, UniProt P08476 311-426, looked up)
Inhibin beta A chain: GLECDGKVNICCKKQFFVSFKDIGWNDWIIAPSGYHANYCEGECPSHIAGTSGSSLSFHSTVINHYRMRGHSPFANLKSCCVPTKLRPMSMLYYDDGQNIIKKDIQNMIVEECGCS
modifications: Inhibin beta A chain
notes: TGFβ receptor agonist (R&D Systems)
Take B4: the “expression of NGN3” value in experiment [1] (immunofluorescence (FIG. 2)) is reported as “blocked the expression”. In addition, the “number of NKX6.1 expressing cells” value in experiment [1] (immunofluorescence (FIG. 2), 20 ng/ml activin A added to treatment 1) is given as “significantly increased”. The NGN3 expression result in experiment [4] (stage 3 day 4, 20 or 50 ng/ml activin A with FGF7, cyclopamine-KAAD, retinoic acid, Noggin (FIG. 1)) is “down-regulation”. Also, in experiment [4] (stage 3 day 4, 20 or 50 ng/ml activin A with FGF7, cyclopamine-KAAD, retinoic acid, Noggin, compared to cells receiving no activin A (FIG. 1)), the NKX6.1 expression result is reported as “dramatic increase”.

The record behind these values is patent publication US8785184B2, “Differentiation of human embryonic stem cells” (Janssen Biotech, Inc., priority 2009, dated 2014).
